Laboratory results as given in PubChem BioAssay (NCI).
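Each compound was tested at five concentrations against cells in 96-well plates for 48 hours. GI50: concentration for 50% inhibition of growth. At the TGI there is no net growth.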

Columns and labels:
Experiment in all cases: DTP human tumour cell line panel, 48 h
SK-MEL-2 melanoma = tested on: SK-MEL-2 melanoma
TK-10 renal = tested on: TK-10 renal
U251 CNS = tested on: U251 CNS
HCT-116 colon = tested on: HCT-116 colon
DMS 114 small cell lung = tested on: DMS 114 small cell lung
COLO 205 colon = tested on: COLO 205 colon
HOP-92 NSCLC = tested on: HOP-92 NSCLC
DLD-1 colon = tested on: DLD-1 colon
T-47D breast = tested on: T-47D breast
MDA-MB-231 breast = tested on: MDA-MB-231 breast

Compound | TGI (SK-MEL-2 melanoma) | TGI (TK-10 renal) | TGI (U251 CNS) | TGI (HCT-116 colon) | TGI (DMS 114 small cell lung) | TGI (COLO 205 colon) | TGI (HOP-92 NSCLC) | TGI (DLD-1 colon) | GI50 (SK-MEL-2 melanoma) | GI50 (TK-10 renal) | GI50 (U251 CNS) | GI50 (T-47D breast) | TGI (T-47D breast) | GI50 (MDA-MB-231 breast) | TGI (MDA-MB-231 breast) | GI50 (HCT-116 colon) | GI50 (COLO 205 colon) | GI50 (HOP-92 NSCLC) | GI50 (DLD-1 colon)
O=C(c1cc(O)ccc1O)c1ccccc1C(Cl)(Cl)Cl | > 100 µM | > 100 µM | > 100 µM | > 100 µM | > 100 µM | > 100 µM | > 100 µM |  |  |  |  |  |  |  |  |  |  |  | 
NCCCCCS(=O)(=O)O | > 100 µM | > 100 µM | > 100 µM | > 100 µM | > 100 µM | > 100 µM |  | > 100 µM |  |  |  |  |  |  |  |  |  |  | 
CC#C[C@@]1(O)CCCC[C@@H]1O | > 100 µM | > 100 µM | > 100 µM | > 100 µM | > 100 µM | > 100 µM | > 100 µM |  |  |  |  |  |  |  |  |  |  |  | 
O=C1C2c3[nH]c4ccccc4c3[C@@H]3CCCCCCCCCCC3C2C(=O)N1c1ccccc1 (stereo partly drawn) |  | 44.3 µM | 37.8 µM |  | 37 µM | 58.5 µM |  | > 100 µM |  |  |  |  |  |  |  |  |  |  | 
CC1=NNC(=NCCN(C)C)C/C1=C/c1ccccc1Cl | > 100 µM | > 100 µM | > 100 µM | > 100 µM | > 100 µM | > 100 µM |  | > 100 µM |  |  |  |  |  |  |  |  |  |  | 
COC(=O)C(=O)C1(CCC(C)=O)c2ccccc2-c2ccccc21 | > 100 µM | > 100 µM | > 100 µM | > 100 µM | > 100 µM | > 100 µM |  | > 100 µM |  |  |  |  |  |  |  |  |  |  | 
CC1(C)CCC[C@]23C(=O)O[C@](O)(C(=O)C4=C[C@@](C)(/C=C/CCCc5ccc6ccc7cccc8ccc5c6c78)CC[C@@]42O)[C@@H]13 | 0.471 µM | 0.423 µM | 0.344 µM | 0.299 µM |  | 0.383 µM | 0.302 µM |  | 0.217 µM | 0.196 µM | 0.17 µM | 0.167 µM | 0.422 µM | 0.197 µM | 0.431 µM | 0.132 µM | 0.183 µM | 0.148 µM | 
CN(C)CCCNc1nn2c(=O)c3ccccc3nc2c2ccccc12 | 43.8 µM | 45.4 µM | 26.5 µM | 15.7 µM |  | 13 µM | 59.3 µM |  | 20.1 µM | 11.1 µM | 10.8 µM | 12.7 µM | 33.6 µM | 8.02 µM | 28.1 µM | 3.72 µM | 2.39 µM | 4.13 µM | 
Cc1cc(C)cc(-n2c3nc(=O)n(C)c(=O)c-3nc3ccccc32)c1 | 63.5 µM | > 100 µM | 50.5 µM | 59.8 µM | 29.1 µM | 24.8 µM |  |  |  |  |  |  |  |  |  |  |  |  | 
CC[C@@]1(O)C(=O)NCc2c1cc1n(c2=O)Cc2cc3ccccc3nc2-1 | > 100 µM | > 100 µM | > 42.8 µM | > 74.2 µM |  | > 100 µM | > 29.4 µM |  | > 100 µM | > 100 µM | 2.39 µM | 2.63 µM | > 100 µM | > 100 µM | > 100 µM | 2.75 µM | 39.2 µM |  | 
Cc1cnc[nH]c1=O | > 100 µM | > 100 µM | > 100 µM | > 100 µM | > 100 µM | > 100 µM |  | > 100 µM |  |  |  |  |  |  |  |  |  |  | 
COC(=O)C[CH](C(=O)OC)[Ge]([CH3])([CH3])[S]c1ccccc1 (stereo not drawn) | > 100 µM | > 100 µM | 26.2 µM | 58.2 µM |  | 27.1 µM | 95.8 µM | 42.4 µM | 16.2 µM | 38.9 µM | 12 µM |  |  |  |  | 27.9 µM | 13.9 µM | 48.6 µM | 22 µM
Cn1c2ccccc2c(=Nc2ccccc2)c2c3ccccc3[nH]c21 | > 100 µM | 2.2 µM | 2.45 µM | 2.52 µM |  | 18.8 µM | 2.39 µM |  | 3.78 µM | 1.03 µM | 1.15 µM | 3.91 µM | > 100 µM | 1.62 µM | 3.11 µM | 1.26 µM | 4.53 µM | 0.942 µM | 
C(=N\Nc1nnc2c(n1)[nH]c1ccccc12)/c1cccnc1 | > 100 µM | > 100 µM | > 100 µM | > 100 µM |  | > 100 µM | > 100 µM |  |  |  |  |  | > 100 µM |  | > 100 µM |  |  |  | 
O=c1[nH]cc(CS(=O)(=O)Cc2c[nH]c(=O)[nH]c2=O)c(=O)[nH]1 | > 100 µM | > 100 µM | > 100 µM | > 100 µM |  | > 100 µM | > 100 µM |  |  |  |  |  | > 100 µM |  | > 100 µM |  |  |  | 
O=C1c2ccccc2C(=O)c2c(NCCCNCCO)ccc(NCCCNCCO)c21 | 17.7 µM | 40.6 µM | 23.3 µM | 16.8 µM | 25.2 µM | 18.9 µM | 26.2 µM |  |  |  |  |  | 68.2 µM |  | 24.2 µM |  |  |  | 
C/C(=C\c1ccc(Cl)cc1)C(C)(C)C(=O)O | > 100 µM | > 100 µM | > 100 µM | > 100 µM |  | > 100 µM | > 100 µM |  |  |  |  |  | > 100 µM |  | > 100 µM |  |  |  | 
COc1ccc(-c2ccc3c(NC(=O)C4CC4)n[nH]c3n2)cc1 | > 25 µM | > 25 µM | > 25 µM | > 25 µM |  | > 25 µM | > 25 µM |  | > 25 µM | > 25 µM | 18 µM | > 25 µM | > 25 µM | > 25 µM | > 25 µM | > 25 µM | > 25 µM | 8.02 µM | 
COc1ccc(-c2ccc(/C=C/C(=O)NO)cc2)cc1 | 37.6 µM | 21.3 µM | 3.08 µM | 11.4 µM |  | 10.1 µM | 4.98 µM |  | 5.11 µM | 1.55 µM | 1.14 µM | 1.47 µM | 5.58 µM | 1.17 µM | 13.4 µM | 0.451 µM | 2.34 µM | 1.19 µM | 
COc1cc(-c2cc(-c3ccc(N(C)C)cc3)nc(N3CCOCC3)c2C#N)cc(OC)c1OC | 17.9 µM | > 100 µM | > 84.6 µM | > 100 µM |  | 24.2 µM | > 29.9 µM |  | 1.14 µM | 2.51 µM | 1.96 µM | 0.529 µM | > 22.5 µM | 0.463 µM | > 33.5 µM | 0.388 µM | 0.355 µM | 1.42 µM | 
O=C(NCc1cccnc1)/C(=C\c1ccc(Br)cc1)S(=O)(=O)c1ccccc1 | 3.03 µM | 2.91 µM | 2.23 µM | 1.84 µM |  | 2.65 µM | 2.23 µM |  | 1.43 µM | 1.5 µM | 0.774 µM | 1.04 µM | 3.12 µM | 0.705 µM | 2.1 µM | 0.46 µM | 1.22 µM | 0.745 µM | 
COc1ccc(C(=O)c2cc(OC)c(OC)c(OC)c2)cc1OC(C)=O | > 100 µM | > 100 µM | > 100 µM | > 100 µM |  | 10.1 µM | > 100 µM |  | 0.0848 µM | 59 µM | 0.0392 µM | 19.9 µM | > 100 µM | 0.0369 µM | > 100 µM | 0.0297 µM | 0.786 µM | 1.73 µM | 
CCC1C(C)c2c([nH]c3ccccc23)C2C(=O)N(c3ccccc3)C(=O)C21 (stereo not drawn) |  | 89.2 µM | 29.3 µM |  | 29.7 µM | 30.7 µM |  | 34.9 µM |  |  |  |  |  |  |  |  |  |  | 
COc1ccc(N2CCN(C(=O)c3ccccc3Nc3ccnc(C(F)(F)F)c3)CC2)cc1 | > 100 µM | > 100 µM | > 100 µM | > 100 µM |  | > 100 µM | 68.8 µM |  | > 100 µM | 54.7 µM | 83.9 µM | 9.23 µM | 96.7 µM | > 100 µM | > 100 µM | 37.7 µM | 63 µM | 5.33 µM | 
S=c1nc(-c2nc(=S)[nH]c3c2CCCCCCCCCC3)c2c([nH]1)CCCCCCCCCC2 | > 100 µM | > 100 µM | > 100 µM | > 100 µM |  | > 100 µM | > 100 µM |  |  |  |  |  | > 100 µM |  | > 100 µM |  |  |  | 
S=c1nc[nH]c2c1ncn2Cc1ccco1 | > 100 µM | > 100 µM | > 100 µM | > 100 µM |  | > 100 µM | > 100 µM |  |  |  |  |  | > 100 µM |  | > 100 µM |  |  |  | 
Nc1ncnc2c1c(C(F)(F)F)cn2[C@@H]1O[C@H](CO)[C@@H](O)[C@H]1O | 2.79 µM | > 100 µM | > 89.6 µM | > 100 µM |  | 1.4 µM | 6.62 µM |  | 0.953 µM | 0.926 µM | 1.33 µM | 0.104 µM | 70.8 µM | 0.652 µM | > 100 µM | 0.213 µM | 0.0731 µM | 0.222 µM | 
O=C(c1ccccc1Nc1ccnc(C(F)(F)F)c1)N1CCN(c2cccc(Cl)c2)CC1 | 50.3 µM | > 100 µM | 99.4 µM | 29 µM |  | 30.1 µM | 25 µM |  | 21.1 µM | 30.8 µM | 24.5 µM | 10.7 µM | 74.4 µM | 16.1 µM | 56 µM | 12.2 µM | 15.1 µM | 0.914 µM | 
C=C(C=O)C1CC(=O)C(C(=O)OC)[C@@H]2O[C@@](C)(CC2=O)C[C@@H]2OC(=O)[C@]3(O[C@@H]23)[C@@H](C(=O)OC)C1 (stereo partly drawn) | 52.9 µM | 42 µM | 39.8 µM | 33.6 µM |  | > 100 µM | 37.9 µM |  | 15.6 µM | 24.7 µM | 14.6 µM | 33.7 µM | > 100 µM | 22.1 µM | 57.5 µM | 14.7 µM | 17.2 µM | 16.5 µM | 
